“And” between values parts separate entries of the source, which are not always exact repeats. Identical values can stand only once.
Test system: SUM149PT spheroids with HUVEC/MSC, viability
Assay: Anticancer human tumor SUM149PT cell line growth inhibition [GQUAD];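 note: spheroids exposed to drugs for seven days before readout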;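 for viability, T/C: percent viability relative to DMSO vehicle control taken as 100%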
Settings: for viability, T/C: stronger effect = lower value
Description: DNA G-quadruplex Stabilizer Agents in Combinations in Complex Spheroids
A high-throughput screen of multi-cell type tumor spheroids was designed to identify active combinations of DNA G-quadruplex stabilizer agents and targeted small molecules. Complex spheroids include a stromal component modeled by human endothelial cells (HUVEC) and fibroblasts modeled by human mesenchymal stem cells (MSCs). The concentration ranges selected for each drug and investigational agent were based upon clinically achievable concentrations if the clinical Cmax of the agent was known.
Compounds. The drugs and investigational agents: pidnarulex (CX-5461; NSC782164), APTO-253 (NSC789042), BRACO-19 (NSC847499), peposertib (NSC802822), ceralasertib (NSC780249), elimusertib (NSC800525), camonsertib (NSC841442), AZD-1390 (NSC803789), olaparib (NSC753686), talazoparib (NSC767125), ART-558 (NSC835418), sotorasib (NSC818433), MRTX-1133 (NSC836407), SN-38 (NSC673596), topotecan (NSC609699), etoposide (NSC141540), doxorubicin (NSC123127), gemcitabine (NSC613327), 5-fluorouracil (NSC19893), paclitaxel (NSC125973), vemurafenib (NSC761431), panobinostat (NSC761190), R-306465 (JNJ-16241199; NSC773264), adavosertib (NSC754352), TP-3654 (NSC805149), carboplatin (NSC241240), KSQ-4279 (NSC840948), and staurosporine (NSC755774) were obtained from the National Cancer Institute (NCI) Developmental Therapeutics Program Chemical Repository (34). The FDA-approved anticancer drug set is available from the NCI Developmental Therapeutics Program. […] The stock solutions were prepared in dimethyl sulfoxide (DMSO, Sigma-Aldrich, St. Louis, MO, cat. D2650) at 800-fold the tested concentration and stored at -70 degrees C prior to their use. All drugs and investigational agents were tested over a range starting from a high concentration at or near the clinical Cmax and decreasing in half-log increments. If the clinical Cmax for an agent had not been determined, the highest concentration tested was 10 microM.
2.3 Cell Culture. All cells were maintained in an incubator at 37 degrees C and 5% CO2 with 95% humidity. The PDC lines were cultured according to standard operating procedures established by the NCI PDMR. All PDCs were thawed and cultured in Matrigel-coated flasks prepared with a working solution of 1X Ham's F-12 nutrient mix, without supplementation (Invitrogen, cat. 11765054), 100 U/mL penicillin-streptomycin (Invitrogen, cat. 15140122), and 2.5% Matrigel (Corning Inc., cat. 354248) for the first three passages. The 857933-349-R-J2-PDC line was cultured in 6C/Colon 1B media, which includes advanced DMEM/F-12 (Thermo Fisher Scientific, cat. 12634028), 10 mM HEPES (Thermo Fisher Scientific, cat. 15630080), 1X GlutaMAX supplement (Thermo Fisher Scientific, cat. 35050061), 0.1 mg/mL primocin (InvivoGen, cat. ant-pm-2), 10% defined fetal bovine serum, heat inactivated (HyClone Laboratories Inc., cat. SH30070.03HI), 50% L-WRN conditioned media (ATCC, cat. CRL-3276), 1.25 mM N-Acetyl-L-cysteine (Sigma-Aldrich, cat. A9165), 10 mM nicotinamide (Sigma-Aldrich, cat. N0636), 1X B-27 supplement (Thermo Fisher Scientific, cat. 17504044), 1X N-2 supplement (Thermo Fisher Scientific, cat. 17502048), 10 microM Y-27632 dihydrochloride (Tocris Bioscience, cat. 1254), and 50 ng/mL human EGF recombinant protein (Thermo Fisher Scientific, cat. PHG0311). The 485176-168-R4-J1-PDC line was cultured in Panc media, which includes all 6C/Colon 1B media components plus 100 ng/mL human FGF-10 (Thermo Fisher Scientific, cat. 100-26), 500 nM SB-431542 (Selleckchem, cat. S1067), and gastrin (Tocris, cat. 3006).
[…]

Cc1[nH]c2ccccc2c1CCNCc1ccc(/C=C/C(=O)NO)cc1
viability, T/C (compound 0.000999 µM): 104% and 108% and 97.7%
viability, T/C (compound 0.00316 µM): 106% and 89.7% and 105%
viability, T/C (compound 0.00999 µM): 90.3% and 107% and 101%
viability, T/C (compound 0.0316 µM): 94.4% and 97.2% and 110%
viability, T/C (compound 0.0999 µM): 92.1% and 91.4% and 106%
viability, T/C (compound 0.316 µM): 41.8% and 37.1% and 34.2%
IC50 (curve of compound): 0.264 µM and 0.241 µM and 0.244 µM

CC(C)n1c(=O)n(C)c2cnc3cc(F)c(-c4ccc(OCCCN5CCCCC5)nc4)cc3c21 + CN(C)c1ccc(Nc2c3ccc(NC(=O)CCN4CCCC4)cc3nc3cc(NC(=O)CCN4CCCC4)ccc23)cc1
IC50 (curve of first compound, second compound 0.0316 µM): > 10 µM
IC50 (curve of first compound, second compound 0.1 µM): > 10 µM
IC50 (curve of first compound, second compound 0.316 µM): > 10 µM
IC50 (curve of first compound, second compound 1 µM): > 10 µM
IC50 (curve of first compound, second compound 3.16 µM): 8.83 µM
IC50 (curve of first compound, second compound 10 µM): 1.18 µM
viability, T/C (second compound 0.0316 µM, first compound 0.0316 µM): 101%
viability, T/C (second compound 0.0316 µM, first compound 0.1 µM): 88.5%
viability, T/C (second compound 0.0316 µM, first compound 0.316 µM): 95%
viability, T/C (second compound 0.0316 µM, first compound 1 µM): 99.9%
viability, T/C (second compound 0.0316 µM, first compound 3.16 µM): 95.8%
viability, T/C (second compound 0.0316 µM, first compound 10 µM): 68.2%
viability, T/C (second compound 0.1 µM, first compound 0.0316 µM): 98.6%
viability, T/C (second compound 0.1 µM, first compound 0.1 µM): 90.2%
viability, T/C (second compound 0.1 µM, first compound 0.316 µM): 96.3%
viability, T/C (second compound 0.1 µM, first compound 1 µM): 95.7%
viability, T/C (second compound 0.1 µM, first compound 3.16 µM): 96.5%
viability, T/C (second compound 0.1 µM, first compound 10 µM): 64.2%
viability, T/C (second compound 0.316 µM, first compound 0.0316 µM): 94%
viability, T/C (second compound 0.316 µM, first compound 0.1 µM): 79.4%
viability, T/C (second compound 0.316 µM, first compound 0.316 µM): 86.6%
viability, T/C (second compound 0.316 µM, first compound 1 µM): 95.8%
viability, T/C (second compound 0.316 µM, first compound 3.16 µM): 93%
viability, T/C (second compound 0.316 µM, first compound 10 µM): 61.5%
viability, T/C (second compound 1 µM, first compound 0.0316 µM): 74.8%
viability, T/C (second compound 1 µM, first compound 0.1 µM): 83.4%
viability, T/C (second compound 1 µM, first compound 0.316 µM): 87.4%
viability, T/C (second compound 1 µM, first compound 1 µM): 89.7%
viability, T/C (second compound 1 µM, first compound 3.16 µM): 81.2%
viability, T/C (second compound 1 µM, first compound 10 µM): 57%
viability, T/C (second compound 3.16 µM, first compound 0.0316 µM): 84.7%
viability, T/C (second compound 3.16 µM, first compound 0.1 µM): 80.9%
viability, T/C (second compound 3.16 µM, first compound 0.316 µM): 73%
viability, T/C (second compound 3.16 µM, first compound 1 µM): 72.2%
viability, T/C (second compound 3.16 µM, first compound 3.16 µM): 70.7%
viability, T/C (second compound 3.16 µM, first compound 10 µM): 46.6%
viability, T/C (second compound 10 µM, first compound 0.0316 µM): 75.3%
viability, T/C (second compound 10 µM, first compound 0.1 µM): 71.6%
viability, T/C (second compound 10 µM, first compound 0.316 µM): 61.9%
viability, T/C (second compound 10 µM, first compound 1 µM): 52.1%
viability, T/C (second compound 10 µM, first compound 3.16 µM): 38.8%
viability, T/C (second compound 10 µM, first compound 10 µM): 24.8%

CC1COCCN1c1cc(C2(S(C)(=N)=O)CC2)nc(-c2ccnc3[nH]ccc23)n1 (centres undefined)
viability, T/C (compound 0.0316 µM): 95.4% and 101% (2×)
viability, T/C (compound 0.1 µM): 98.2% and 91% and 98.3%
viability, T/C (compound 0.316 µM): 96% and 99.7% and 94.1%
viability, T/C (compound 1 µM): 86.7% and 83.5% and 77.8%
viability, T/C (compound 3.16 µM): 39% and 44.6% and 81.2%
viability, T/C (compound 10 µM): 24.2% and 26.8% and 16.7%
IC50 (curve of compound): 2.42 µM and 2.69 µM and 5.21 µM

Cn1ncnc1[C@H]1c2n[nH]c(=O)c3cc(F)cc(c23)N[C@@H]1c1ccc(F)cc1
viability, T/C (compound 0.000999 µM): 98.5% and 103% and 109%
viability, T/C (compound 0.00316 µM): 97.1% and 96.5% and 102%
viability, T/C (compound 0.00999 µM): 97.5% and 93.8% and 91.6%
viability, T/C (compound 0.0316 µM): 81.4% and 91.5% and 83.6%
viability, T/C (compound 0.0999 µM): 68.1% (2×) and 91.5%
viability, T/C (compound 0.316 µM): 54.4% and 76.8% and 53.9%
IC50 (curve of compound): > 0.316 µM

Cc1cnc(CNC(=O)c2c(=O)c3ccc(N4CCCN(C)CC4)nc3n3c2sc2ccccc23)cn1
viability, T/C (compound 0.0316 µM): 87.8% [middle of 12 runs]
viability, T/C (compound 0.1 µM): 70% [middle of 12 runs]
viability, T/C (compound 0.316 µM): 57.5% [middle of 12 runs]
viability, T/C (compound 1 µM): 46.9% [middle of 12 runs]
viability, T/C (compound 3.16 µM): 36.2% [middle of 12 runs]
IC50 (compound alone, run of 03/18/2024): 725 nM [middle of 12 runs]

Reference: PubChem BioAssay AID2060484 (Molecular Pharmacology Branch, DTP, NCI, 2025)
